Reference: patent US4091006A, “Esters of 3-hydroxyindone compounds” (priority 1975, dated 1978)

Tests used:
[1] = system: egg of the two-spotted mite; test: Mite Ovicide Test; type: in vivo, Tetranychus urticae (Koch); parameters: key to Mite Ova rating: 1: no mortality; 3: an approximately 50% mortality; 5: 100% mortality; conditions: for Mite Ova rating: spray on eggs, 4 days
Text: (§1) The test procedures were as follows:
The plants were allowed to dry thoroughly.
(§2) Compositions were rated on the basis of percent kill with a rating of 1 indicating no mortality; 3 signifying an approximately 50% mortality and 5 indicating 100% mortality at the indicated dosage.

[2] = system: Perennial rye grass, crabgrass, red root pigweed, mustard; test: Preliminary Herbicide Seed Germination Test; conditions: each rated 1 (no injury) to 5 (no seedlings emerged)
Text: The thus-prepared stock suspension contained 0.5 percent by weight of compound. The test concentrations employed in the tests described hereinbelow were obtained by diluting the stock suspension with water. The test procedures were as follows:
The following seeds were used in this test:
Crabgrass -- Digitaria san-
Mustard -- Brassica pincea var.
Each of above mixtures is rolled separately in 5 gallon containers for approximately one-half hour on ball mill to insure uniform mixing of seeds and soil. For each compound four 3-inch pots are filled with soil to within 11/2 inches of top of pots. To 2 of these pots are added 70 cc. of Mixture I. To the remaining 2 pots are added 70 cc. of Mixture II. The seed-soil mixture is tamped firmly, and the pots are removed to the greenhouse and watered lightly. About 2 hours after planting, 25 milliliters of the test formulation were added to each of 2 pots for each soil-seed mixture; i.e., one replicate of each seed mixture per concentration. An equal volume of a water solution containing acetone and an emulsifier in the same concentration as the herbicidal mixture but without the candidate herbicide is also added to each of the soil-seed mixtures. These pots are used as check or control units. The test compounds are formulated by standard procedure of solution in acetone, addition of an emulsifier, and dilution with water. Tests were conducted on all compositions at low concentration (100 ppm.). Certain compositions were also tested at high concentration (1000 ppm). The pots were held in the greenhouse and watered lightly until results were taken. Ten to twelve days after application of chemical, injury is noted for each species by comparing treated vs. untreated pots. Ratings are made at both the high and the low concentrations (1000 ppm and 100 ppm) according to the following designations:
4 = few seedlings emerged and/or very severe stunting
3 = moderate reduction in stand and/or moderate stunting
2 = very slight reduction in stand and/or slight stunting
1 = no injury; seedlings appear no different with respect to stand or growth than untreated controls
Accordingly, the maximum rating for one test seed species tested at both high and low concentration is 10 and the maximum possible total preemergence rating is 40 (10 for each of the four test seed species). […] In some tests the crabgrass experiment was omitted. In these tests the maximum total rating for species tested at both high and low concentrations is 30 and 15 for species tested only at low concentrations.

[3] = system: adults and nymphal stages of the two-spotted mite; test: Mite Foliage Spray Test; type: in vivo, Tetranychus urticae (Koch); parameters: key: 1: no mortality; 3: an approximately 50% mortality; 5: 100% mortality; conditions: 4 days
Text: as §1, §2

[4] = rating/maximum 20: 100 ppm only, four species
[5] = rating/maximum 30: 100 and 1000 ppm, crabgrass omitted
[6] = rating/maximum 40: 100 and 1000 ppm, four species, 10-12 days

SMILES | Mite Ova rating [1] | Herbicide (total preemergence rating) [2, 4] | Mite Adult rating [3] | Mite ova kill ([1]; 500 ppm) | Herbicide (total preemergence rating) [2, 5] | Herbicide (total preemergence rating) [2, 6]
Cc1cc(C)c(C2=C(OC(=O)c3c(C)cccc3C)c3ccccc3C2=O)c(C)c1 [3-(2,6-Dimethylbenzoyloxy)-2-(2',4',6'-trimethylphenyl)indone] | 1 | 4/20 | 1 | – | – | –
Cc1cccc(C)c1C(=O)OC1=C(c2c(Cl)cccc2Cl)C(=O)c2ccccc21 [3-(2,6-Dimethylbenzoyloxy)-2-(2',6'-dichlorophenyl)indone] | 1 | 4/20 | 1 | About 20% | – | –
CCCCC(CC)C(=O)OC1=C(c2cccc3ccccc23)C(=O)c2ccccc21 (stereo not shown) [3-(2-Ethylhexanoyloxy)-2-(1-Naphthyl)indone] | 1 | 14/20 | 1 | – | – | –
CCCCC(CC)C(=O)OC1=C(c2ccccc2F)C(=O)c2ccccc21 (stereo not shown) [3-(2-Ethylhexanoyloxy)-2-(2'-fluorophenyl)indone] | 5 (100% mortality) | 4/20 | 3 (an approximately 50% mortality) | – | – | –
CCCCC(CC)C(=O)OC1=C(c2ccccc2OC)C(=O)c2ccccc21 (stereo not shown) [3-(2-Ethylhexanoyloxy)-2-(2'-methoxyphenyl-indone] | 1 | 4/20 | 1 | – | – | –
CCCCC(CC)C(=O)OC1=C(c2ccccc2C)C(=O)c2ccccc21 (stereo not shown) [3-(2-Ethylhexanoyloxy)-2-(2'-methylphenyl)indone] | 5 (100% mortality) | 4/20 | 3 (an approximately 50% mortality) | – | – | –
CCCCC(CC)C(=O)OC1=C(c2ccccc2)C(=O)c2ccccc21 (stereo not shown) [3-(2-Ethylhexanoyloxy)-2-phenylindone] | 1 | 4/20 | 1 | – | – | –
Cc1cc(C)c(C2=C(OC(=O)c3ccccc3C)c3ccccc3C2=O)c(C)c1 [3-(2-Methylbenzoyloxy)-2-(2',4',6'-trimethylphenyl)indone] | 5 (100% mortality) | – | 5 (100% mortality) | – | 19/30 | –
Cc1ccccc1C(=O)OC1=C(c2c(Cl)cccc2Cl)C(=O)c2ccccc21 [3-(2-Methylbenzoyloxy)-2-(2',6'-dichlorophenyl)indone] | 5 (100% mortality) | – | 5 (100% mortality) | – | – | 31/40
CCC(CC)C(=O)OC1=C(c2ccc(C(C)C)cc2)C(=O)c2ccccc21 [3-(2-ethylbutanoyloxy)-2-(4'-isopropylphenyl)indone] | 1 | 4/20 | 1 | – | – | –
Cc1cc(C)c(C2=C(OC(=O)c3ccc(Cl)c(Cl)c3)c3ccccc3C2=O)c(C)c1 [3-(3,4-Dichlorobenzoyloxy)-2-(2',4',6'-trimethylphenyl)indone] | 5 (100% mortality) | – | 5 (100% mortality) | – | – | 32/40
O=C(OC1=C(c2c(Cl)cccc2Cl)C(=O)c2ccccc21)c1ccc(Cl)c(Cl)c1 [3-(3,4-Dichlorobenzoyloxy)-2-(2',6'-dichlorophenyl)indone] | 5 (100% mortality) | – | 5 (100% mortality) | – | – | 29/40
Cc1cc(C)c(C2=C(OC(=O)c3cc(Cl)cc(Cl)c3)c3ccccc3C2=O)c(C)c1 [3-(3,5-Dichlorobenzoyloxy)-2-(2',4',6'-trimethylphenyl)indone] | 5 (100% mortality) | – | 5 (100% mortality) | – | 23/30 | –
O=C(OC1=C(c2c(Cl)cccc2Cl)C(=O)c2ccccc21)c1cc(Cl)cc(Cl)c1 [3-(3,5-Dichlorobenzoyloxy)-2-(2',6'-dichlorophenyl)indone] | 5 (100% mortality) | – | 5 (100% mortality) | – | 24/30 | –
COc1cccc(C(=O)OC2=C(c3c(C)cc(C)cc3C)C(=O)c3ccccc32)c1 [3-(3-Methoxybenzoyloxy)-2-(2',4',6'-trimethylphenyl)indone] | 5 (100% mortality) | – | 5 (100% mortality) | – | 25/30 | –
COc1cccc(C(=O)OC2=C(c3c(Cl)cccc3Cl)C(=O)c3ccccc32)c1 [3-(3-Methoxybenzoyloxy)-2-(2',6'-dichlorophenyl)indone] | 5 (100% mortality) | – | 5 (100% mortality) | – | 23/30 | –
Cc1cccc(C(=O)OC2=C(c3c(C)cc(C)cc3C)C(=O)c3ccccc32)c1 [3-(3-Methylbenzoyloxy)-2-(2',4',6'-trimethylphenyl)indone] | 5 (100% mortality) | – | 5 (100% mortality) | – | – | 26/40
Cc1cccc(C(=O)OC2=C(c3c(Cl)cccc3Cl)C(=O)c3ccccc32)c1 [3-(3-Methylbenzoyloxy)-2-(2',6'-dichlorophenyl)indone] | 5 (100% mortality) | – | 5 (100% mortality) | – | – | 29/40
Cc1cc(C)c(C2=C(OC(=O)c3cccc([N+](=O)[O-])c3)c3ccccc3C2=O)c(C)c1 [3-(3-Nitrobenzoyloxy)-2-(2',4',6'-trimethylphenyl)indone] | 5 (100% mortality) | – | 5 (100% mortality) | – | 28/30 | –
O=C(OC1=C(c2c(Cl)cccc2Cl)C(=O)c2ccccc21)c1cccc([N+](=O)[O-])c1 [3-(3-Nitrobenzoyloxy)-2-(2',6'-dichlorophenyl)indone] | 5 (100% mortality) | – | 5 (100% mortality) | – | 26/30 | –
Cc1cc(C)c(C2=C(OC(=O)c3ccc(Cl)cc3)c3ccccc3C2=O)c(C)c1 [3-(4-Chlorobenzoyloxy)-2-(2',4',6'-trimethylphenyl)indone] | 5 (100% mortality) | – | 5 (100% mortality) | – | 24/30 | –
O=C(OC1=C(c2c(Cl)cccc2Cl)C(=O)c2ccccc21)c1ccc(Cl)cc1 [3-(4-Chlorobenzoyloxy)-2-(2',6'-dichlorophenyl)indone] | 5 (100% mortality) | – | 5 (100% mortality) | – | 23/30 | –
COc1ccc(C(=O)OC2=C(c3c(C)cc(C)cc3C)C(=O)c3ccccc32)cc1 [3-(4-Methoxybenzoyloxy)-2-(2',4',6'-trimethylphenyl)indone] | 5 (100% mortality) | – | 3 (an approximately 50% mortality) | – | 21/30 | –
COc1ccc(C(=O)OC2=C(c3c(Cl)cccc3Cl)C(=O)c3ccccc32)cc1 [3-(4-Methoxybenzoyloxy)-2-(2',6'-dichlorophenyl)indone] | 5 (100% mortality) | – | 5 (100% mortality) | – | 22/30 | –
Cc1ccc(C(=O)OC2=C(c3c(C)cc(C)cc3C)C(=O)c3ccccc32)cc1 [3-(4-Methylbenzoyloxy)-2-(2',4',6'-trimethylphenyl)indone] | 5 (100% mortality) | – | 5 (100% mortality) | – | 22/30 | –
